Assay results as given in the supplement of paper PMC10307832.

Assays:
Assay in all cases: relative viability (nuclei count vs DMSO), 5 days (fraction); higher = more cells survive
BGJ398 + OSI-027 = compound: CCN1CCN(c2ccc(Nc3cc(N(C)C(=O)Nc4c(Cl)c(OC)cc(OC)c4Cl)ncn3)cc2)CC1 [BGJ398] + COc1cccc2cc(-c3nc([C@H]4CC[C@H](C(=O)O)CC4)n4ncnc(N)c34)[nH]c12 [OSI-027] (partner 0.5 µM)
In short: (§1)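 Dosing by pin tool came one day after lung cancer cell lines were seeded in 1536-well plates, using either one drug or a fixed anchor-drug dose plus five library-drug doses (not always all listed) in √10 steps. After 5 days, nuclei were counted on 4× images. Relative viability is treated-well nuclei count divided by vehicle-well nuclei count, and values are medians of duplicate plates.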

BGJ398 + Alpelisib = compound: CCN1CCN(c2ccc(Nc3cc(N(C)C(=O)Nc4c(Cl)c(OC)cc(OC)c4Cl)ncn3)cc2)CC1 [BGJ398] + Cc1nc(NC(=O)N2CCC[C@H]2C(N)=O)sc1-c1ccnc(C(C)(C)C(F)(F)F)c1 [Alpelisib] (partner 2 µM)
In short: as §1

BGJ398 + Vorinostat = compound: CCN1CCN(c2ccc(Nc3cc(N(C)C(=O)Nc4c(Cl)c(OC)cc(OC)c4Cl)ncn3)cc2)CC1 [BGJ398] + O=C(CCCCCCC(=O)Nc1ccccc1)NO [Vorinostat] (partner 1 µM)
In short: as §1

BGJ398 + Linsitinib = compound: CCN1CCN(c2ccc(Nc3cc(N(C)C(=O)Nc4c(Cl)c(OC)cc(OC)c4Cl)ncn3)cc2)CC1 [BGJ398] + C[C@]1(O)C[C@@H](c2nc(-c3ccc4ccc(-c5ccccc5)nc4c3)c3c(N)nccn32)C1 [Linsitinib] (partner 1 µM)
In short: as §1

| Cell Line | relative viability (BGJ398 + OSI-027; first compound 0.01 µM) | relative viability (BGJ398 + OSI-027; first compound 0.03162 µM) | relative viability (BGJ398 + OSI-027; first compound 0.1 µM) | relative viability (BGJ398 + OSI-027; first compound 0.3162 µM) | relative viability (BGJ398 + OSI-027; first compound 1 µM) | relative viability (BGJ398 + Alpelisib; first compound 0.01 µM) | relative viability (BGJ398 + Alpelisib; first compound 0.03162 µM) | relative viability (BGJ398 + Alpelisib; first compound 0.1 µM) | relative viability (BGJ398 + Alpelisib; first compound 0.3162 µM) | relative viability (BGJ398 + Alpelisib; first compound 1 µM) | relative viability (BGJ398 + Vorinostat; first compound 0.01 µM) | relative viability (BGJ398 + Vorinostat; first compound 0.03162 µM) | relative viability (BGJ398 + Vorinostat; first compound 0.1 µM) | relative viability (BGJ398 + Vorinostat; first compound 0.3162 µM) | relative viability (BGJ398 + Vorinostat; first compound 1 µM) | relative viability (BGJ398 + Linsitinib; first compound 0.01 µM) | relative viability (BGJ398 + Linsitinib; first compound 0.03162 µM) | relative viability (BGJ398 + Linsitinib; first compound 0.1 µM) | relative viability (BGJ398 + Linsitinib; first compound 0.3162 µM) | relative viability (BGJ398 + Linsitinib; first compound 1 µM) |
| --- | --- | --- | --- | --- | --- | --- | --- | --- | --- | --- | --- | --- | --- | --- | --- | --- | --- | --- | --- | --- |
| SK-MES-1 | 0.589 | 0.693 | 0.594 | 0.565 | 0.69 | 0.826 | 1 | 0.815 | 0.866 | 0.57 | 1.05 | 1.11 | 1.03 | 1.09 | 0.913 | 1.01 | 1.12 | 1.09 | 1.01 | 1.11 |
| SW 1573 | 0.611 | 0.766 | 0.703 | 0.572 | 0.734 | 0.689 | 0.961 | 0.765 | 0.761 | 0.789 | 0.742 | 0.796 | 0.713 | 0.854 | 0.786 | 0.859 | 0.894 | 0.886 | 0.812 | 0.933 |
| NCI-H661 | 0.618 | 0.723 | 0.766 | 0.752 | 0.742 | 0.594 | 1.08 | 0.715 | 0.526 | 0.614 | 0.774 | 0.796 | 0.806 | 0.731 | 0.801 | 0.531 | 0.77 | 0.644 | 0.678 | 0.548 |
| PC-3 [JPC-3] | 0.738 |  | 0.76 | 0.578 | 0.676 | 1.05 |  | 1.04 | 0.948 | 0.973 | 1.04 |  | 0.52 |  | 0.705 | 1.01 |  | 0.959 | 0.864 | 1.01 |
| NCI-H1623 | 0.45 | 0.384 | 0.414 | 0.386 | 0.452 |  |  |  |  |  |  |  |  |  |  |  |  |  |  |  |
| Calu-6 |  |  |  |  |  | 0.861 | 1.01 | 0.984 | 0.999 | 0.944 |  |  |  |  |  | 0.932 | 0.969 | 0.901 | 0.922 | 0.952 |
| LC-2-ad | 0.763 | 0.935 | 0.832 | 0.779 | 0.829 | 0.926 | 0.871 | 0.924 | 0.968 | 0.915 | 0.708 | 0.76 | 0.742 | 0.687 | 0.703 | 0.827 | 0.88 | 0.817 | 0.87 | 0.843 |
| CAL-12T | 0.539 | 0.773 | 0.83 | 0.673 | 0.491 | 1.11 | 1.37 | 1.25 | 1.36 | 1.47 | 0.666 | 1.08 | 0.703 | 0.895 | 0.941 | 0.774 | 0.782 | 0.882 | 0.773 | 0.756 |
| RERF-LC-KJ | 0.587 | 0.576 | 0.654 | 0.573 | 0.506 | 0.922 | 0.85 | 0.816 | 0.833 | 0.79 | 0.668 | 0.643 | 0.765 | 0.727 | 0.539 | 0.863 | 0.894 | 0.901 | 0.865 | 0.945 |
